Source: publication PMC10119279 (Scientific Reports, 2023)
Several values for one entry are separate records, joined by “and”; a condition that tells them apart may be missing. Identical values can stand only once. Like-named read-outs stand apart in the source and are kept apart here. Each block holds one compound with its values, some of them ahead of it.

Experiments:
CN1 enzyme = biological target: T1, CN1 enzyme (Homo sapiens, UniProt Q96KN2); experiment: In vitro degradation of carnosine, anserine and balenine added to human heparin plasma; format: in vitro ADME; settings: for half-life at 20 µM: human, heparin plasma
T1 construct: Fasted venous heparin plasma was collected from 6 subjects (5 males and 1 female) with a wide range in CN1 enzyme activity; from tissue; host or cells: human venous heparin plasma from 6 volunteers
T1 sequence (Q96KN2 26-507): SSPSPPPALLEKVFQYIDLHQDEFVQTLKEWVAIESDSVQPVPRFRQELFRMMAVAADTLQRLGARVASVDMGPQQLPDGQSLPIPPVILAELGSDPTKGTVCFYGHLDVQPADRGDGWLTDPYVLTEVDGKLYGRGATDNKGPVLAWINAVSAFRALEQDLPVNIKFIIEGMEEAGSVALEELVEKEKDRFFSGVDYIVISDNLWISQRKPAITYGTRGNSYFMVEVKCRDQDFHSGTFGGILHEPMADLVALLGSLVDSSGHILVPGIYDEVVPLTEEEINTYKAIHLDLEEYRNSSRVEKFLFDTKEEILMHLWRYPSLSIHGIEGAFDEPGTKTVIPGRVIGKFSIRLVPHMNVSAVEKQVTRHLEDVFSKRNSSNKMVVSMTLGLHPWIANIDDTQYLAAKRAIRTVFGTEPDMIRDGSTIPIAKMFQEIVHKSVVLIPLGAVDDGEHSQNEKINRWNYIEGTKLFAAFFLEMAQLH
Method: Fasted venous heparin plasma was collected from 6 subjects (5 males and 1 female) with a wide range in CN1 enzyme activity (0.32–2.92 µmol/mL/h with a mean value of 1.62 µmol/mL/h). Subjects were asked to refrain from alcohol, meat and fish the day before the sampling. […] On different time points (Table 1), plasma was deproteinized with 1:11 sulfosalicylic acid (SSA, 35% solution) to inhibit further hydrolysis. Samples were centrifuged for 5 min at 16,000 g and supernatant was stored at − 20 °C until further UHPLC-MS/MS analysis.
(§1) Extraction of plasma and urine for UHPLC-MS/MS analysis went as follows: 150 µL of deproteinized plasma/urine (not deproteinized) was added to 215 µL of acetonitrile containing 1% formic acid, 10 µL of internal standard (IS) (carnosine-D4) and 25 µL ultrapure water or standard (calibration curve and quality control samples (QC)). Then samples were vortexed and centrifuged (15 min, 4 °C, 15,000 g). Supernatant was used for further analyses.
(§2) In the in vitro study, supernatant was diluted 40 times before injection. In the PK study, plasma samples from the 10 mg/kg condition and baseline urine samples were diluted 100 times. All other urine samples were diluted 1000 times. Dilutions were conducted with acetonitrile containing 1% formic acid.
(§3) Analyses were performed on a UHPLC-MS/MS platform consisting of an Acquity H-Class Quaternary Solvent Manager and Flow-Through-Needle Sample Manager with temperature controlled tray (8 °C) and column oven (60 °C). Chromatographic separation was achieved on an Acquity UPLC BEH amide column (2.1 mm × 100 mm, 1.7 µm) with an Acquity amide Vanguard pre-column. The system operated at a flow rate of 0.3 mL/min with solvent A (ultrapure water), solvent B (acetonitrile) and solvent C (200 mM ammonium formate with 0.04% ammonia) with the gradient shown in Table 2. The UPLC column effluent was interfaced to a Xevo TQ-XS® MS/MS system (plasma samples) and Xevo TQ-S® (urine samples), equipped with an electrospray ionization (ESI) probe operating in positive ion mode. Further MS settings included desolvation gas flow rate (15 L/h), desolvation temperature (600 °C), cone gas flow rate (800 L/h), source temperature (150 °C) and capillary voltage (0.75 kV). Transition details are depicted in Table 3. […] The detector operated in multiple reacting monitoring mode, scanning the two most intense transitions of the HCDs. Masslynx software 4.2 was used for instrument control and data extraction. Hardware and software were purchased from Waters (Milford, MA, USA).
CN1 activity was quantified by fluorometric determination of histidine following carnosine addition (based on Teufel et al., 2003). The reaction was initiated by adding carnosine to the serum (final concentration of 3.33 mM carnosine) and stopped after 10 min incubation at 37 °C by adding trichloroacetic acid (final concentration of 150 mM TCA). For controls, trichloroacetic acid was added before carnosine. After centrifugation (15 min, 16000 g), 10 µl supernatant was added to 190 µl of an OPA-NaOH mixture (4000 µl incomplete ophtaldehyde, with 0.2% 2-mercaptoethanol, and 15 ml of 4 M sodium hydroxide solution) and fluorescence was determined after 40 min (excitation: 360 nm and emission: 465 nm). All chemicals were purchased from Sigma-Aldrich (Milan, Italy).
HCD concentration in the in vitro experiment was calculated relative to the starting concentration. Elimination constant (ke) and elimination half-life were calculated based on a monophasic decay profile. Incremental area under the plasma concentration time curve (iAUC) was calculated using the trapezoidal method in the PK study. A normality check was performed using Shapiro-Wilk’s test. In case of normally distributed data, a mixed-effects model and Pearson correlation was used. Skewed data were analysed with Friedman tests and Spearman rank correlations. Values are presented as mean/median ± standard deviation/inter quartile range and 95% confidence intervals (95% CI). […]

[1] = cited from earlier work
[2] = test system: serum carnosinase (CN1) enzyme; settings: cited from earlier work; for Substrate quality for the CN1 enzyme: ref 15-17; for Hydrolysis rate as % of carnosine's: several in vitro experiments
[3] = test system: human peptide transporter 2 (PEPT2); design: method as in PMID 20067523; settings: ref 23; cited from earlier work
clinical = settings: both, human, plasma and urine, oral
Method: Plasma concentrations were described using a 1-compartmental model, with sequential zero- and first-order absorption and linear elimination. Cumulative urine concentrations were fitted simultaneously with plasma concentrations. Inter-occasion variability was also implemented and assumed to follow a lognormal distribution. Residual variability was described using a combined error model, consisting of an additive and a proportional component. The following covariates were tested: sex, age, weight, CN1 activity and dose. Model evaluation was done based on standard goodness-of-fit metrics (objective function value, standard errors) and plots.

[4] = compared to carnosine and anserine; cited from earlier work
[5] = design: method as in PMID 30449006; settings: ref 10; cited from earlier work
[6] = In vivo pharmacokinetic experiment: plasma and urine balenine after acute oral ingestion; design: species or system human; settings: for Urinary balenine excretion: urine up to 24 h; for Cmax: read-out: Cmax (peak plasma concentration)
Method: Six subjects (3 males and 3 females) participated in this PK study in which three increasing doses were tested. For the third dose, […] was replaced, due to pregnancy, by […] with similar CN1 activity. […] This means that half of the dose was administered as 5 mg/kg (weight-relative part) and the other half was an absolute dose based on the mean weight of the subjects of the third test day (341 mg; fixed part).
The day before a test day, subjects were asked to refrain from meat and fish. Upon arrival, a catheter was inserted in an antecubital vein and a fasted ethylenediaminetetraacetic acid (EDTA, 4 mL) and serum sample (3.5 mL, to determine CN1 activity) were collected. […] The following 2 h, every 30 min an EDTA blood sample was taken. Then after 3, 4, 5, 8 and 24 h, another sample was withdrawn. Urine was collected after 150 min, 5, 8 and 24 h. The subjects arrived in the lab and remained fasted until 2 h after ingesting the supplement. Subjects remained in the lab until the post 8 h blood sample, and returned the following morning for the post 24 h sample. Throughout the test day, food intake was standardized (lacto-ovo-vegetarian diet) ensuring minimal HCD intake for 24 h following supplement. Figure 5 gives a schematic overview of a test day.
Plasma samples were collected in pre-cooled (4 °C) EDTA tubes. Upon withdrawal, plasma was immediately deproteinized with 1:11 SSA, centrifuged (5 min, 16 000 g) and stored at − 20 °C.
as §1, §2, §3
CN1 activity was quantified by fluorometric determination of histidine following carnosine addition (based on Teufel et al., 2003).

Sprague Dawley rats = test system: Sprague Dawley rats
Method: Following treatment, a 2 week observation period with twice daily examination for morbidity and mortality was performed.

[7] = 20 µM added to heparin plasma, 37 °C
[8] = 20 µM added to human heparin plasma, 37 °C, 6 subjects
[9] = both sexes, 20 µM added to human heparin plasma, 37 °C, 6 subjects, read-out: Half-life in plasma
[10] = in vitro human heparin plasma, factor ×, not significant

Time after which undetectable in plasma (CN1 enzyme; [7]): 5 min
Half-life in plasma (CN1 enzyme; [8]): 1 min
half-life at 20 µM (CN1 enzyme; [9]): 1.2 ± 0.36 min
Compound: NCCC(=O)N[C@@H](Cc1cnc[nH]1)C(=O)O [carnosine, β-alanyl-L-histidine, reference compound]
Plasma concentration change after ingestion ([1]; 60 mg/kg bodyweight, only in people with low CN1 activity): small increase
Plasma level after ingestion ([1]; highest dose of 20 mg/kg oral, human): barely measurable
Substrate quality for the CN1 enzyme [2]: good

Time after which undetectable in plasma (CN1 enzyme; [7]): 15 min
Half-life in plasma (CN1 enzyme; [8]): 2 min
half-life at 20 µM (CN1 enzyme; [9]): 2.14 ± 0.58 min
Elimination constant ke: factor difference between carnosine and anserine (CN1 enzyme; [10]): 1.8
Compound: Cn1cncc1C[C@H](NC(=O)CCN)C(=O)O [anserine, β-alanyl-N(π)-methyl-L-histidine, reference compound]
Affinity for PEPT2 [3]: high-affinity ligand
Cmax ([1]; 4 mg/kg oral, human): 0.54 µM
Cmax ([1]; 10 mg/kg oral, human): 1.1 µM
Plasma iAUC ([1]; 10 mg/kg oral, human): 66.7 µM·min
Dose-dependent peak plasma concentrations after ingestion ([1]; human): 0.5 to 3.1 µM
Average excreted percentage of the dose in urine (intact) ([1]; n = 7): 6.3%
Substrate quality for the CN1 enzyme [2]: intermediate
Hydrolysis rate as % of carnosine's [2]: 30–50%

Compound: Cn1cnc(CC(NC(=O)CCN)C(=O)O)c1 [balenine, β-alanyl-N(τ)-methyl-L-histidine]
Time remaining elevated above LOQ in plasma (CN1 enzyme; 20 µM added to heparin plasma, 37 °C, LOQ 0.05 µM): up to 5 h
half-life at 20 µM (CN1 enzyme; [9]): 34.9 ± 14.6 min
half-life at 20 µM (CN1 enzyme; in vitro, read-out: Half-life in plasma with the highest CN1 activity): 15 min
Half-life in plasma with the lowest CN1 activity relative to highest (CN1 enzyme; in vitro): threefold higher half-life
Elimination rate constant relative to carnosine (CN1 enzyme; in vitro human heparin plasma): 3.86%
Elimination constant ke: factor lower for balenine compared to carnosine (CN1 enzyme; in vitro human heparin plasma, factor ×): 25.9
Elimination constant ke: factor difference between balenine and anserine (CN1 enzyme; [10]): 14.0
Duration of zero-order input (dT1) (1 and 4 mg/kg doses, shorter for 10 mg/kg): 1.13 h
Absorption constant (ka) (first-order absorption, fixed to last estimated value): 3.48 h⁻¹
Fraction excreted in urine (pu) (population estimate): 0.56
Vd (clinical): 126 L
clearance (clinical): 327 mL/min
half-life (clinical): 12 min
Substrate quality for the CN1 enzyme [2]: poor
Rate of hydrolysis relative to carnosine ([2]; ref 15): 8%
Rate of hydrolysis relative to carnosine ([2]; ref 16): 3.81%
Hydrolysis rate as % of carnosine's [2]: 5–20%
Antioxidant and iron-chelating capacity [4]: higher antioxidant and iron-chelating capacity than carnosine and anserine
Ability to quench reactive aldehydes such as HNE and acrolein [5]: lacks the ability to quench reactive aldehydes
Urinary excretion as % of the ingested dose ([6]; 1 mg/kg oral): 27.3%
Urinary balenine excretion ([6]; 1 mg/kg oral): 19.3 ± 13.1 mg
Time plasma balenine remained significantly increased ([6]; 4 mg/kg oral): up to 3 h
Urinary excretion as % of the ingested dose ([6]; 4 mg/kg oral): 29.7%
Urinary balenine excretion ([6]; 4 mg/kg oral): 82.0 ± 40.5 mg
Cmax of balenine relative to anserine at the same dose ([6]; 10 mg/kg oral): 25.9 fold
Plasma iAUC of balenine relative to anserine ([6]; 10 mg/kg oral): 136 fold
Time plasma balenine remained significantly increased ([6]; 10 mg/kg oral): up to 8 h
Urinary excretion as % of the ingested dose ([6]; 10 mg/kg oral): 25.2%
Cmax ([6]; 10 mg/kg oral (fragmented dose), human, n = 6): 28 µM
Plasma iAUC ([6]; 10 mg/kg oral, human): 8960 µM·min
Urinary balenine excretion ([6]; 10 mg/kg oral): 176 ± 95.9 mg
Average excreted percentage of the dose in urine (intact) ([6]; average over doses, n = 6): 27.4%
Cmax ([6]; both sexes, human, plasma, po, 1 mg/kg, 1 mg/kg oral, human, n = 6): 1.6 ± 0.5 µM
Cmax ([6]; both sexes, human, plasma, po, 4 mg/kg, 4 mg/kg oral, human, n = 6): 7.1 ± 1.2 µM
Cmax ([6]; both sexes, human, plasma, po, 10 mg/kg, 10 mg/kg oral (fragmented dose), human, n = 6): 28.2 ± 7.4 µM
Cmax ratio 4 mg/kg vs 1 mg/kg ([6]; oral, human): 4.4 times
Cmax ratio 10 mg/kg vs 1 mg/kg ([6]; oral, human): 17.6 fold and 18 fold
Cmax ratio 10 mg/kg vs 4 mg/kg ([6]; oral, human): 4 times
Urinary excretion after 1 mg/kg: times lower than after 4 mg/kg ([6]; oral, human): 4 times
iAUC ratio 4 mg/kg vs 1 mg/kg ([6]; oral, human): 3.8 times
iAUC ratio 10 mg/kg vs 1 mg/kg ([6]; oral, human): 14.2 fold
iAUC ratio 10 mg/kg vs 4 mg/kg ([6]; oral, human): 3.7 times
Pathological changes, morbidity and mortality (Sprague Dawley rats; female Sprague Dawley rats, acute increasing doses up to 2000 mg/kg, 2 week observation): No pathological changes were observed in any animal
Dose concluded safe (Sprague Dawley rats; female, Sprague Dawley, rat, in vivo, 2 weeks): 2000 mg/kg

Compound: NCCC(=O)NC(CO)Cc1cnc[nH]1 (stereo not drawn) [carnosinol, reference compound]
Resistance to CN1 ([2]; ref 29): resistant to CN1
